Measured values: patent US20180185440A1, “PHARMACEUTICAL COMPOSITIONS AND METHODS FOR DELIVERY OF BREMELANOTIDE” (NOVEN PHARMACEUTICALS, INC., priority 2016, published 2018)

Assay: in vivo delivery of bremelanotide by oral capsules (rats)
Parameters: species or system rat
Settings: oral capsules with patches, FIG. 8
Protocol: The capsules of Examples 4-15 and Control 2, described above, were tested in vivo in a rat model. Capsules were administered by oral gavage administration using a dosing tool, followed by administration of 0.3 mL of water. Blood samples were drawn until 5 hours after administration and assayed for bremelanotide concentration as a function of time. FIGS. 5-8 illustrate the blood levels (pg/ml) of bremelanotide achieved (reported as the average from n=2 or 3 rats per formulation tested). […] The results illustrated in FIGS. 6 and 7 indicate that increasing the relative amount of penetration enhancer results in increased bremelanotide delivery.

With `CCCCCCCCCCCCO[C@@H]1O[C@H](CO)[C@@H](O[C@H]2O[C@H](CO)[C@@H](O)[C@H](O)[C@H]2O)[C@H](O)[C@H]1O` [n-DMS, n-dodecyl-β-D-maltoside] as the molecule, how does the “enhancer effect for bremelanotide through the GI tract” value read?
Its value is “effective enhancers”.
